ChEMBL document CHEMBL6153134, “Anti-inflammatory and Hepatoprotective Iridoid Glycosides from the Roots of Gomphandra mollis” (J Nat Prod, 2025)

Tests used:
Format in all cases: functional
HepG2 [1] = experiment: Hepatoprotective activity against APAP-induced cytotoxicity in human HepG2 cells assessed as cell viability at 40 to 80 uM pretreated for 8 hrs followed by APAP addition for 36 hrs by MTT assay (reference value: 68.1%); conditions: dose 40-80 µM, time 44 hrs
HepG2 [2] = experiment: Hepatoprotective activity against APAP-induced cytotoxicity in human HepG2 cells assessed as cell viability at 40 uM pretreated for 8 hrs followed by APAP addition for 36 hrs by MTT assay (reference value: 68.1%); conditions: time 44 hrs, read-out: Activity
HepG2 [3] = experiment: Hepatoprotective activity against APAP-induced cytotoxicity in human HepG2 cells assessed as cell viability at 50 ug/mL pretreated for 8 hrs followed by APAP addition for 36 hrs by MTT assay (reference value: 68.1%); conditions: time 44 hrs, read-out: Activity

Q: With `C=C[C@H]1[C@H](O[C@@H]2O[C@H](CO)[C@@H](O)[C@H](O)[C@H]2O)OC=C(C(=O)O[C@H]2C[C@@H]3C(C(=O)OC)=CO[C@@H](O[C@@H]4O[C@H](CO)[C@@H](O)[C@H](O)[C@H]4O)[C@@H]3[C@H]2C)[C@H]1C[C@@H]1O[C@@H]2[C@@H](O)[C@@H](OC[C@H]3O[C@@](CO)(O[C@H]4O[C@H](CO)[C@@H](O)[C@H](O)[C@H]4O)[C@@H](O)[C@@H]3O)O[C@H](CO)[C@@H]2O1` as the compound, how does the Activity (HepG2 [1]) read?
A: Its Activity is 75.6%.

Q: For `C=C[C@H]1[C@H](O[C@@H]2O[C@H](CO)[C@@H](O)[C@H](O)[C@H]2O)OC=C2C(=O)OCC[C@H]21` [SWEROSIDE], which Activity (HepG2 [1]) is on record?
A: The Activity was 75.6%.

Q: With `C=C[C@H]1[C@H](O[C@@H]2O[C@H](CO)[C@@H](O)[C@H](O)[C@H]2O)OC=C(C(=O)O[C@H]2C[C@@H]3CCOC(=O)[C@@H]3[C@H]2C)[C@H]1C[C@@H](O)O[C@@H](O)C[C@@H]1C(C(=O)O[C@H]2C[C@@H]3CCOC(=O)[C@@H]3[C@H]2C)=CO[C@@H](O[C@@H]2O[C@H](CO)[C@@H](O)[C@H](O)[C@H]2O)[C@@H]1C=C` as the compound, how does the viability at 40 µM (HepG2 [2]) read?
A: Its viability at 40 µM is 75.6%.

Q: For `C=CC1C(CC(OC)OC)C(C(=O)O[C@H]2CC3C(C(=O)OC)=CO[C@@H](O[C@@H]4O[C@H](CO)[C@@H](O)[C@H](O)[C@H]4O)C3[C@H]2C)=CO[C@H]1O[C@@H]1O[C@H](CO)[C@@H](O)[C@H](O)[C@H]1O` (stereo partly specified), which viability at 40 µM (HepG2 [2]) is on record?
A: Its viability at 40 µM is 75.6%.

Q: How did the Activity (HepG2 [1]) turn out when `C=C[C@H]1[C@H](O[C@@H]2O[C@H](CO)[C@@H](O)[C@H](O)[C@H]2O)OC=C(C(=O)O[C@H]2C[C@@H]3C(C(=O)OC)=CO[C@@H](O[C@@H]4O[C@H](CO)[C@@H](O)[C@H](O)[C@H]4O)[C@@H]3[C@H]2C)[C@H]1CC=O` was run?
A: Its Activity is 75.6%.

Q: How did the viability at 50 µg/mL (HepG2 [3]) turn out when `COc1cc([C@H]2Oc3cc([C@H]4Oc5cc(O)cc(O)c5C(=O)[C@@H]4O)ccc3O[C@@H]2CO)ccc1O` [SILYBIN A] was run?
A: The viability at 50 µg/mL was 90.9%.
